From ChEMBL document CHEMBL5154822, “Novel inhibitors of AChE and Aβ aggregation with neuroprotective properties as lead compounds for the treatment of Alzheimer's disease” (Eur J Med Chem, 2022)
pIC50, pKi: −log10 of the molar value. The source made the active and inactive calls. The rule behind the calls is not given here.

What was measured:
[1] = molecular target: T1, Acetylcholinesterase (Mus musculus, UniProt P21836); test: Inhibition of AChE in mouse cerebral cortex using acetylthiocholine iodide as substrate preincubated for 10 mins followed by substrate addition and measured for 180 secs by Ellman's spectrophotometric method; assay type: tissue-based
T1 sequence (P21836 whole entry): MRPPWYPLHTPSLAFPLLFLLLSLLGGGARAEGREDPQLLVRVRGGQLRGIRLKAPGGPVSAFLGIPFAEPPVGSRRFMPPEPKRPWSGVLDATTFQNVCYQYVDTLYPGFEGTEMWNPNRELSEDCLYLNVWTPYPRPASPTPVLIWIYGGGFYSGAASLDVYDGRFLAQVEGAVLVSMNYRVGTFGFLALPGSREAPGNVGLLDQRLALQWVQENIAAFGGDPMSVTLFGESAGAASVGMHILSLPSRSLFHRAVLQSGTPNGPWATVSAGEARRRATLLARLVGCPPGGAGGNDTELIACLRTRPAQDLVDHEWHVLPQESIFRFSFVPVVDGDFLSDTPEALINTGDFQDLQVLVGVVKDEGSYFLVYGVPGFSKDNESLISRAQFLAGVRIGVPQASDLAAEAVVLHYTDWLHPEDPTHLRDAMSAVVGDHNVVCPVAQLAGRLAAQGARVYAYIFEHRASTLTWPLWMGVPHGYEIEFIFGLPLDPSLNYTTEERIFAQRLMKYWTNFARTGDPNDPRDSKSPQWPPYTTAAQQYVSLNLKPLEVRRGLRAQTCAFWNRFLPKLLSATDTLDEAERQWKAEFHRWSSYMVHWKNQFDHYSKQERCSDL

[2] = tested on: SH-SY5Y; test: Neuroprotective activity in human SH-SY5Y differentiated neuronal cells assessed as inhibition of GA-induced cell death by measuring increase in cell viability at 0.5 to 5 uM measured after 24 hrs by MTT assay; assay type: functional, cell-based; conditions: dose 0.5-5 µM
[3] = tested on: Mus musculus; test: In vivo inhibition of AChE in ig dosed ICR mouse cerebral cortex using acetylthiocholine iodide as substrate and measured after 1 hr by microplate reader analysis; assay type: functional, organism-based; conditions: dose 1-4 mg/kg, DDE = dose-dependent effect
[4] = tested on: Mus musculus; test: In vivo inhibition of AChE in ICR mouse hippocampus using acetylthiocholine iodide as substrate at 4 mg/kg, ig measured after 1 hr by microplate reader analysis; assay type: functional, organism-based
[5] = tested on: SH-SY5Y; test: Neuroprotective activity in human SH-SY5Y cells assessed as inhibition of okadaic acid-induced mitochondrial dysfunction by measuring increase in red-to-green fluorescence intensity ratio pretreated for 24 hrs followed by okadaic acid addition for 24 hrs by JC-1 dye based fluorescence analysis; assay type: functional, cell-based; conditions: dose 0.5-5 µM, time 48.0 hrs, DDE = dose-dependent effect
[6] = tested on: Mus musculus; test: Antialzheimer activity against scopolamine-induced cognitive deficit ICR mouse model assessed as improvement in memory impairment by measuring reduction in number of errors at 0.1 to 0.3 mg/kg, ig by step-through passive avoidance test; assay type: functional, organism-based; conditions: dose 0.1-0.3 mg/kg
[7] = tested on: SH-SY5Y; test: Antioxidant activity against okadaic acid-induced ROS generation in human SH-SY5Y cells assessed as reduction in DCF fluorescence intensity at 5 uM pretreated for 24 hrs followed by okadaic acid addition for 24 hrs by DCFH-DA dye based fluorescence analysis; assay type: functional, cell-based; conditions: time 48.0 hrs
[8] = tested on: SH-SY5Y; test: Neuroprotective activity in human SH-SY5Y differentiated neuronal cells assessed as inhibition of GA-induced neurite shortening by measuring increase in axon length at 5 uM by laser confocal microscope; assay type: functional, cell-based
[9] = tested on: Mus musculus; test: In vivo inhibition of AChE in ICR mouse cerebral cortex using acetylthiocholine iodide as substrate at 4 mg/kg, ig measured after 1 hr by microplate reader analysis; assay type: functional, organism-based
[10] = tested on: Mus musculus; test: In vivo inhibition of AChE in ig dosed ICR mouse hippocampus using acetylthiocholine iodide as substrate and measured after 1 hr by microplate reader analysis; assay type: functional, organism-based; conditions: dose 1-4 mg/kg, DDE = dose-dependent effect
[11] = tested on: SH-SY5Y; test: Neuroprotective activity in human SH-SY5Y differentiated neuronal cells assessed as inhibition of GA-induced axon morphology defects at 0.5 uM by laser confocal microscope; assay type: functional, cell-based
[12] = tested on: SH-SY5Y; test: Neuroprotective activity in human SH-SY5Y differentiated neuronal cells assessed as inhibition of GA-induced neurite shortening by measuring increase in axon length at 0.5 uM by laser confocal microscope; assay type: functional, cell-based
[13] = molecular target: Acetylcholinesterase (Homo sapiens) (UniProt P22303); test: Inhibition of AChE in glyceraldehyde-exposed human SH-SY5Y differentiated neuronal cells using acetylthiocholine as substrate at 50 nM by Ellman's spectrophotometric method; assay type: cell-based
Sequence of Acetylcholinesterase (Homo sapiens) (P22303 whole entry): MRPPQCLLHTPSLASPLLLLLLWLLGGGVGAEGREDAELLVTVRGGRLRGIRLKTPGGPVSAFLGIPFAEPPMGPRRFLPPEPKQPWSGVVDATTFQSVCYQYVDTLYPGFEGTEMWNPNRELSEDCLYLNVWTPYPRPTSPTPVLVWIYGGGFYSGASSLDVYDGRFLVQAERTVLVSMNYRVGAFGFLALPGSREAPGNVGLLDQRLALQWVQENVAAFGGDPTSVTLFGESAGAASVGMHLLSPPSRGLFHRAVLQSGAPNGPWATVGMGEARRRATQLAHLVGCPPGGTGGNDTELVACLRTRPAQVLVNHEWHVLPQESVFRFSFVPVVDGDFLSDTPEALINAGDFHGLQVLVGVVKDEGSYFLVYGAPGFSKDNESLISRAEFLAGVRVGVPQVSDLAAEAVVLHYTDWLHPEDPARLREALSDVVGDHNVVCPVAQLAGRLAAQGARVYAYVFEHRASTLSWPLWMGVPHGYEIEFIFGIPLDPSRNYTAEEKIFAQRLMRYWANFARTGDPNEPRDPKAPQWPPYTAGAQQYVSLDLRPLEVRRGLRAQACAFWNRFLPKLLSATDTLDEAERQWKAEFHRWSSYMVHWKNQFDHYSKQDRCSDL

[14] = molecular target: Acetylcholinesterase (Homo sapiens) (UniProt P22303); test: Inhibition of AChE in human SH-SY5Y differentiated neuronal cells assessed as inhibition of GA-induced tau hyperphosphorylation at Ser396 residue at 10 nM by ELISA; assay type: cell-based
[15] = tested on: SH-SY5Y; test: Neuroprotective activity in human SH-SY5Y differentiated neuronal cells assessed as inhibition of GA-induced axon morphology defects at 5 uM by laser confocal microscope; assay type: functional, cell-based
[16] = Drug concentration in ICR mouse plasma at 1 mg/kg, ig measured after 2 hrs by LC/MS-MS analysis; assay type: ADME, organism-based; conditions: po
[17] = Ratio of drug concentration in brain to plasma in ICR mouse at 1 mg/kg, ig measured after 0.5 hrs by LC/MS-MS analysis; assay type: ADME, organism-based; conditions: po, read-out: BPR
[18] = Ratio of drug concentration in brain to plasma in ICR mouse at 1 mg/kg, ig measured after 4 hrs by LC/MS-MS analysis; assay type: ADME, organism-based; conditions: po, read-out: BPR
[19] = Drug concentration in ICR mouse plasma at 1 mg/kg, ig measured after 1 hr by LC/MS-MS analysis; assay type: ADME, organism-based; conditions: po
[20] = Drug concentration in ICR mouse brain at 1 mg/kg, ig measured after 0.25 hrs by LC/MS-MS analysis; assay type: ADME, organism-based; conditions: po, read-out: Ct
[21] = Drug concentration in ICR mouse brain at 1 mg/kg, ig measured after 1 hr by LC/MS-MS analysis; assay type: ADME, organism-based; conditions: po, read-out: Ct
[22] = molecular target: T1, Acetylcholinesterase; test: Mixed-type inhibition of AChE in mouse cerebral cortex using acetylthiocholine iodide as substrate by double reciprocal Lineweaver-Burk plot analysis; assay type: tissue-based
[23] = Drug concentration in ICR mouse brain at 1 mg/kg, ig measured after 4 hrs by LC/MS-MS analysis; assay type: ADME, organism-based; conditions: po, read-out: Ct
[24] = Drug concentration in ICR mouse brain at 1 mg/kg, ig measured after 0.5 hrs by LC/MS-MS analysis; assay type: ADME, organism-based; conditions: po, read-out: Ct
[25] = Drug concentration in ICR mouse brain at 1 mg/kg, ig measured after 2 hrs by LC/MS-MS analysis; assay type: ADME, organism-based; conditions: po, read-out: Ct
[26] = Drug concentration in ICR mouse plasma at 1 mg/kg, ig measured after 4 hrs by LC/MS-MS analysis; assay type: ADME, organism-based; conditions: po
[27] = Ratio of drug concentration in brain to plasma in ICR mouse at 1 mg/kg, ig measured after 1 hr by LC/MS-MS analysis; assay type: ADME, organism-based; conditions: po, read-out: BPR
[28] = Ratio of drug concentration in brain to plasma in ICR mouse at 1 mg/kg, ig measured after 2 hrs by LC/MS-MS analysis; assay type: ADME, organism-based; conditions: po, read-out: BPR
[29] = Drug concentration in ICR mouse plasma at 1 mg/kg, ig measured after 0.25 hrs by LC/MS-MS analysis; assay type: ADME, organism-based; conditions: po
[30] = Ratio of drug concentration in brain to plasma in ICR mouse at 1 mg/kg, ig measured after 0.25 hrs by LC/MS-MS analysis; assay type: ADME, organism-based; conditions: po, read-out: BPR
[31] = Drug concentration in ICR mouse plasma at 1 mg/kg, ig measured after 0.5 hrs by LC/MS-MS analysis; assay type: ADME, organism-based; conditions: po
[32] = Cytotoxicity against human SH-SY5Y cells assessed as maximum non-cytotoxic concentration by CellTiter-Glo luminescent assay; assay type: toxicity, cell-based; conditions: read-out: MNCC
[33] = molecular target: T2, Acetylcholinesterase (Mus musculus) (UniProt P21836); test: Inhibition of AChE in mouse cerebral cortex using acetylthiocholine iodide as substrate at 40 uM preincubated for 10 mins followed by substrate addition and measured for 180 secs by Ellman's spectrophotometric method; assay type: tissue-based; conditions: time 780.0 sec
T2 sequence (whole entry): T1 sequence (P21836 whole entry)

Compound: COc1cc2c(cc1OC)S(=O)(=O)C(CC1CCN(Cc3cccc(F)c3)CC1)C2 (stereo not drawn)
- pIC50 [1]: 8.36

Compound: COc1cc2c(cc1OC)S(=O)(=O)/C(=C\C1CCN(Cc3ccccc3)CC1)C2
- pIC50 [1]: 7.95

Compound: COc1cc2c(cc1OC)S(=O)(=O)/C(=C/C1CCN(Cc3ccccc3)CC1)C2
- pIC50 [1]: 8.33

Compound: COc1cc2c(cc1OC)S(=O)(=O)C(CC1(F)CCN(Cc3cccc(C)c3)CC1)C2 (stereo not drawn)
- pIC50 [1]: 8.42

Compound: COc1cc2c(cc1OC)S(=O)(=O)C(CC1CCN(Cc3ccc(F)c(Cl)c3)CC1)C2 (stereo not drawn)
- pIC50 [1]: 7.94

Compound: COc1cc2c(cc1OC)S(=O)(=O)C(F)(CC1CCN(Cc3cccc(F)c3)CC1)C2 (stereo not drawn) [listing 1 of 2 here]
- Activity [2]: Active
- inhibition [3]: Dde
- inhibition [4]: Active
- Activity [5]: Dde
- Activity [6]: Active
- Activity [7]: Active
- Activity [8]: Active
- inhibition [9]: Active
- inhibition [10]: Dde
- Activity [11]: Active
- Activity [12]: Active
- inhibition [13]: Active
- inhibition [14]: Active
- Activity [15]: Active

Compound: COc1cc2c(cc1OC)S(=O)(=O)C(F)(CC1CCN(Cc3cccc(F)c3)CC1)C2 (stereo not drawn) [listing 2 of 2 here]
- concentration at 2 h [16]: 2.59 ng/mL
- Kp at 0.5 h [17]: 5.24
- Kp at 4 h [18]: 8.47
- concentration at 1 h [19]: 3.48 ng/mL
- concentration at 0.25 h [20]: 10.6 ng/mL
- concentration at 1 h [21]: 21.9 ng/mL
- pKi [22]: 9.40
- concentration at 4 h [23]: 21.7 ng/mL
- concentration at 0.5 h [24]: 18.1 ng/mL
- concentration at 2 h [25]: 21.8 ng/mL
- concentration at 4 h [26]: 2.7 ng/mL
- Kp at 1 h [27]: 6.33
- Kp at 2 h [28]: 8.4
- pIC50 [1]: 8.62
- concentration at 0.25 h [29]: 2.89 ng/mL
- Kp at 0.25 h [30]: 4.17
- concentration at 0.5 h [31]: 3.42 ng/mL
- MNTC [32]: 10 µM

Compound: COc1cc2cc(CC3CCN(Cc4ccccc4)CC3)sc2cc1OC
- inhibition [33]: 46.6%
